Test results from US9878984B2, “Anti-cancer compounds” (NORTHWESTERN UNIVERSITY, priority 2008, dated 2018).
Entries after “also recorded” stand apart in the source; their conditions may differ.

Tests used:
Format in all cases: cell-based, human
[1] = tested on: Normal cells (PBMC, HUVEC, and WI-38); experiment: Cancer cell selective growth inhibition (cancer cells vs normal cells); details: 72 hr MTS
Experimental: […] Peripheral blood mononuclear cells (PBMCs) were voluntarily collected from a healthy laboratory worker by standard sterile phlebotomy techniques and isolated using Vacutainer CPT collection tubes (BD Biosciences—Bedford, Mass.). PBMCs were isolated freshly for each experiment. All DMEM and RPMI-1640 media was supplemented with 10% FBS (Atlanta Biologicals—Lawrenceville, Ga.) and 100 U/mL penicillin and streptomycin (Invitrogen). HUVEC (Human umbilical vein endothelial cells) were cultured in EGM-2 media with supplements provided in the manufacturers BulletKit (Lonza—Walersville, Md.). All cells were maintained at 37° C. and in a 5% CO2 atmosphere.
Growth Inhibition Assays: HeLa, MDA-MB-231, PC-3M, WI-38, and HUVEC cells were plated at 5,000 cells per well in 96 well plates and allowed to attach for 20 hr (8 hr for HeLa). The media was removed and 198 μL of fresh media was added to each well. […] PBMCs were isolated and plated at 100,000 per well in 96 well plates with a volume of 197 μL. They were allowed to settle in the media for 20 hr, at which point 1 μL of 1 mg/mL phytohemagglutinin (Sigma—St. Loius Mo.) in PBS was added to stimulate proliferation (final concentration of 5 μg/mL). […] Cell proliferation was measured at t=0 (time at start of treatment) and t=72 hr using MTS AQueous non-radioactive proliferation assay (Promega—Madison, Wis.). This assay utilizes the metabolic conversion of yellow tetrazolium to a purple formazan by live cells and the color change is proportional to the number of cells. […] The absorbance at 490 nm in each well was read with a Spectramax 250 plate reader (Molecular Devices—Sunnyvale, Calif.). […] Data were fit to one site dose response curves in order to obtain specific growth inhibitory concentrations and the relative standard errors of the mean for these concentrations were calculated by the XLfit4 software. Statistical significance (p value) for the selectivity and all subsequent assays was determined with the two tailed homoscedastic Student's t-test. […]

HeLa cells [2] = experiment: Transwell invasion assay; details: [GI99%], matrigel, 20 hr
Experimental: Transwell Invasion Assay: HeLa cells were plated at 250,000 per 35 mm well and allowed to attach for 8 hr. The cells were washed with PBS and then treated for 4 hr with the [GI99%] of each compound (or 1% DMSO—vehicle control) in serum free media to decrease the number of invading cells in the beginning of the experiment due to a preliminary lack of drug exposure. The cells were then trypsinized and counted by trypan blue exclusion with a hemacytometer (Sigma—St. Louis, Mo.). Eight micron pore size control well inserts for 12 well plates (BD Biosciences) were coated with 100 μL 1 mg/mL matrigel (Sigma—St. Louis, Mo.) and allowed to solidify at room temperature for 1 hr. The excess matrigel was aspirated and the inserts were gently washed with PBS. The cells were seeded at a density of 300,000 per insert well in a volume of 500 μL serum free media containing a derivative or vehicle. The inserts were then placed in wells containing 700 μL serum free media with the respective compound. After 20 hr the cells on the top of the membranes were gently removed with a cotton swab, the membranes then were fixed in methanol for 1 min, stained in Gills No. 3 Hematoxylin (Sigma—St. Louis, Mo.) for 5 min, rinsed in tap water, and allowed to dry overnight. The membranes were excised, mounted on slides, and the cells were counted under the 40× objective of a bright field microscope. The data are expressed as the average total number of invading cells counted in 20 fields of each membrane, as standardized to the vehicle control, from six experiments.
Effect of derivatives on the malignant phenotype—invasion assay: If A1-A9 have differential targets, DNA binding specificity, or downstream effects they may differentially alter the malignant behavior of cells. Also, anti-cancer compounds can be efficacious against tumors in other ways besides inhibiting growth and inducing death of cancer cells; they can also alter the behavior of malignant cells. Therefore, the ability of A1-A9 and amonafide to alter the invasive behavior of cancer cells in a transwell (also known as Boyden chamber) invasion assay was evaluated, which determines the ability of cells to migrate through a proteinacious gel. This behavior is considered to be representative of cancer cell invasion through the basement membrane of the primary tumor environment. In this assay, treated cells are seeded on to the top of the matrigel-coated porous membrane, allowed to invade through the proteinacious gel onto the underside of the membrane, and then counted.

HeLa cells [3] = experiment: Perinucleolar compartment (PNC) prevalence reduction; details: for PNC prevalence reduction at [GI50%]: [GI50%] for 72 hr
Experimental: Perinucleolar Compartment (PNC) Reduction: HeLa cells (PNC prevalence ˜85%) were plated 5,000/well in glass bottom 96 well plates and allowed to attach for 8 hr. The cells were then treated with compounds at the respective [GI50%] for 72 hr and [GI99%] for 20 hr for each compound (total media volume was 200 μL/well with 1% DMSO). After treatment cells were immunofluorescently stained as previously described, but with a Texas Red labeled secondary antibody (Jackson) instead of a FITC labeled secondary antibody. PNC prevalence (% of non-apoptotic/non-mitotic cells with 1 or more PNCs) was determined by scoring >200 cells per well with fluorescent microscope (60× objective) and images were acquired with the digital camera and image acquisition software previously mentioned. Scale bar=10 μm. Data are expressed as the average PNC prevalence (% control) of three individual experiments.
The PNC is a unique structural marker that it is only found in malignantly transformed cancer cells, irrespective of tissue origin, and indicates cells that are capable of metastasis. […] Previous studies indicate that the PNC likely conveys a functional metastatic advantage to cancer cells. The PNC prevalence (% of cells with one or more PNC) in human breast cancer positively correlates with the progression of the disease and is always near 100% in distant metastases. […] The PNC prevalence reduction was determined for amonafide and A1-A9 at the respective [GI50%] and [GI99%] doses in HeLa cells, which have a high PNC prevalence of ˜85%.

| SMILES | cancer cell selective growth inhibition (selectivity) [1] | invasive behavior (% invading cells vs vehicle) (HeLa cells [2]) | PNC prevalence reduction at [GI50%] (HeLa cells [3]) | PNC prevalence reduction at [GI99%] (HeLa cells [3]; [GI99%] for 20 hr) |
| --- | --- | --- | --- | --- |
| CN(C)CCN1C(=O)c2cccc3cc(N)cc(c23)C1=O [amonafide, reference compound] | slightly more potent (but not with statistical significance) or equally potent at inhibiting the growth of cancer cells over normal cells | did not significantly alter the invasive behavior of HeLa cells compared to the control | able effectively reduce the PNC; also recorded: can significantly reduce PNC prevalence | able to greatly reduce the PNC prevalence |
| CN(C)CCN1C(=O)c2cccc3c(N)ccc(c23)C1=O [A1, 6-amino-2-[2-(dimethylamino)ethyl]-1H-benz[de]isoquinoline-1,3(2H)-dione] | near identical to amonafide | did not significantly alter the invasive behavior of HeLa cells compared to the control | able effectively reduce the PNC; also recorded: can significantly reduce PNC prevalence | – |
